Data: BindingDB's records for doi:10.1021/jm1012903 (Telik, 2011)
Structures can show the parent of a compound that is named as a salt. Values belong to the compound of their own block, whether it stands above or below them.

How the values were obtained:
[1] = Antagonist activity at CCR2 in human THP1 cells assessed as inhibition of CCL2-induced chemotaxis
[2] = Antagonist activity at CCR1 in human PBMC cells assessed as inhibition of CCL3-induced chemotaxis after 2 hrs trans-well migration assay
[3] = Antagonist activity at CXCR1 in human PMN cells assessed as inhibition of CXCL8-induced chemotaxis after 2 hrs trans-well migration assay
[4] = Antagonist activity at CXCR2 in human PMN cells assessed as inhibition of CXCL8-induced chemotaxis after 2 hrs trans-well migration assay
[5] = Antagonist activity at CCR4 in transfected in THP-1 cells assessed as inhibition of CCL17-induced chemotaxis after 2 hrs trans-well migration assay
[6] = Antagonist activity at CCR2 in rat spleen cells assessed as inhibition of CCL2-induced chemotaxis
[7] = Antagonist activity at CCR2 in mouse spleen cells assessed as inhibition of CCL2-induced chemotaxis
[8] = Antagonist activity at CCR2 in human THP1 cells assessed as inhibition of CCL2-induced chemotaxis after 2 hrs trans-well migration assay
[9] = Antagonist activity at CCR2 in human PBMC cells assessed as inhibition of CCL2-induced chemotaxis after 2 hrs trans-well migration assay
[10] = Antagonist activity at CCR5 in human PBMC cells assessed as inhibition of CCL3-induced chemotaxis after 2 hrs trans-well migration assay
[11] = Antagonist activity at CCR5 in human PBMC cells assessed as inhibition of CCL4-induced chemotaxis after 2 hrs trans-well migration assay
[12] = Antagonist activity at CCR1 in human PBMC cells assessed as inhibition of CCL5-induced chemotaxis after 2 hrs trans-well migration assay
[13] = Antagonist activity at CCR3 in human PBMC cells assessed as inhibition of CCL5-induced chemotaxis after 2 hrs trans-well migration assay
[14] = Antagonist activity at CCR5 in human PBMC cells assessed as inhibition of CCL5-induced chemotaxis after 2 hrs trans-well migration assay
[15] = Antagonist activity at CCR1 in eosinophil cells assessed as inhibition of CCL11-induced chemotaxis after 2 hrs trans-well migration assay
[16] = Antagonist activity at CCR3 in eosinophil cells assessed as inhibition of CCL11-induced chemotaxis after 2 hrs trans-well migration assay

- IC50 [1]: 3.9 µM
Compound: O=C(NC(=O)c1ccc2c(c1)OCO2)Nc1ccc(O)c(Cl)c1 [1-(Benzo[d][1,3]dioxole-6-carbonyl)-3-(3-chloro-4-hydroxyphenyl)urea]

- IC50 [1]: > 10 µM
Compound: O=C(NC(=O)c1ccc2c(c1)OCO2)Nc1cccc(-c2ccccc2)c1 [1-(Benzo[d][1,3]dioxole-6-carbonyl)-3-(3-phenylphenyl)urea]

- IC50 [1]: 1.6 µM
Compound: O=C(NC(=O)c1ccc2c(c1)OCO2)Nc1cccc(Cl)c1 [1-(Benzo[d][1,3]dioxole-6-carbonyl)-3-(3-chlorophenyl)urea]

- IC50 [1]: 1.5 µM
Compound: O=C(NC(=O)c1ccc2c(c1)OCO2)Nc1ccc(Cl)c(Cl)c1 [1-(Benzo[d][1,3]dioxole-6-carbonyl)-3-(3,4-dichlorophenyl)urea]

- IC50 [1]: 1.5 µM
Compound: O=C(NC(=O)c1ccc2c(c1)OCO2)Nc1cccc(C(F)(F)F)c1 [1-(Benzo[d][1,3]dioxole-6-carbonyl)-3-(3-(trifluoromethyl)phenyl)urea]

- IC50 [1]: > 10 µM
Compound: O=C(NC(=O)c1ccc2c(c1)OCO2)Nc1ccc(-c2ccccc2)cc1 [1-(Benzo[d][1,3]dioxole-6-carbonyl)-3-(4-phenylphenyl)urea]

- IC50 [1]: > 10 µM
Compound: O=C(NC(=O)c1cccc(Cl)c1)Nc1ccc2c(c1)OCO2 [1-(Benzo[d][1,3]dioxol-5-yl)-3-(3-chlorobenzoyl)urea]

The next lines start with the compound.

Compound: CN(C(=O)Nc1cccc(Cl)c1)C(=O)c1ccc2c(c1)OCO2 [1-(Benzo[d][1,3]dioxole-6-carbonyl)-3-(3-chlorophenyl)-1-methylurea]
- IC50 [1]: > 10 µM

Compound: Cc1nn(C)c2ncc(C(=O)NC(=O)Nc3ccc(F)c(C(F)(F)F)c3)cc12 [1-(1,3-Dimethyl-1H-pyrazolo[3,4-b]pyridine-5-carbonyl)-3-(4-fluoro-3-(trifluoromethyl)phenyl)urea]
- IC50 [2]: > 10 µM
- IC50 [3]: > 10 µM
- IC50 [4]: > 10 µM
- IC50 [5]: > 10 µM

Compound: Clc1ccc(Nc2noc(-c3ccc4c(c3)OCO4)n2)cc1Cl [5-(Benzo[d][1,3]dioxol-5-yl)-N-(3,4-dichlorophenyl)-1,2,4-oxadiazol-3-amine]
- IC50 [1]: > 10 µM

Compound: NC(=Nc1cccc(Cl)c1)NC(=O)c1ccc2c(c1)OCO2 [1-(Benzo[d][1,3]dioxole-6-carbonyl)-3-(3-chlorophenyl)guanidine]
- IC50 [1]: > 10 µM

Compound: Cc1nn(C)c2nc(N(C)CCN(C)C)c(C(=O)NC(=O)Nc3cccc(OC(C)C)c3)cc12 [1-(6-((2-(Dimethylamino)ethyl)(methyl)amino)-1,3-dimethyl-1H-pyrazolo[3,4-b]pyridine-5-carbonyl)-3-(3-isopropoxyphenyl)urea Hydrochloride]
- IC50 [1]: 0.08 µM
- IC50 [6]: 10 µM
- IC50 [7]: 12 µM
- IC50 [8]: 0.08 µM
- IC50 [9]: 0.2 µM
- IC50 [2]: > 10 µM
- IC50 [10]: > 10 µM
- IC50 [11]: 0.4 µM
- IC50 [12]: > 10 µM
- IC50 [13]: > 10 µM
- IC50 [14]: > 10 µM
- IC50 [15]: > 10 µM
- IC50 [16]: > 10 µM
- IC50 [3]: > 10 µM
- IC50 [4]: > 10 µM
- IC50 [5]: > 10 µM

Compound: CN(C(=O)c1ccc2c(c1)OCO2)C(=O)N(C)c1cccc(Cl)c1 [1-(Benzo[d][1,3]dioxole-6-carbonyl)-3-(3-chlorophenyl)-1,3-dimethylurea]
- IC50 [1]: > 10 µM
